Test results taken from patent US4681872A (priority 1985, dated 1987).
Converted amounts (≈) assume the structure as drawn. Like-named read-outs stand apart in the source and are kept apart here.

How the values were obtained:
[1] = system: Staph. epidermidis 3519 RARI; test: microbe, parasite or virus in culture; assay type: cell-based
Strep. pyogenes EES61 = test: antimicrobial spectrum, agar dilution MIC; assay type: cell-based; details: BHI agar, 35°-37° C., 20-24 hours
Staph. aureus ATCC 25923 = test: antimicrobial spectrum, agar dilution MIC; assay type: cell-based; details: 35°-37° C., 20-24 hours
Staph. aureus CMX 730A = test: antimicrobial spectrum, agar dilution MIC; assay type: cell-based; details: BHI agar, 35°-37° C., 20-24 hours
Staph. aureus NCTC 10649 = test: antimicrobial spectrum, agar dilution MIC; assay type: cell-based; details: 35°-37° C., 20-24 hours
Staph. aureus CYR 1150 = test: antimicrobial spectrum, agar dilution MIC; assay type: cell-based; details: 35°-37° C., 20-24 hours
Staph. aureus CYR 1162 = test: antimicrobial spectrum, agar dilution MIC; assay type: cell-based; details: 35°-37° C., 20-24 hours
[2] = system: Staph. epidermidis CMX 728; test: antimicrobial spectrum, agar dilution MIC; assay type: cell-based; details: 35°-37° C., 20-24 hours
[3] = system: Staph. epidermidis GYR 1151; test: antimicrobial spectrum, agar dilution MIC; assay type: cell-based; details: 35°-37° C., 20-24 hours
[4] = system: Staph. saprophyticus ATCC 15305; test: antimicrobial spectrum, agar dilution MIC; assay type: cell-based; details: 35°-37° C., 20-24 hours
Enterococcus GYR 1166 = test: microbe, parasite or virus in culture; assay type: cell-based
[5] = system: Strep. agalactiae CMX 633; test: antimicrobial spectrum, agar dilution MIC; assay type: cell-based; details: 35°-37° C., 20-24 hours
[6] = system: Strep. pyogenes M79061-139; test: antimicrobial spectrum, agar dilution MIC; assay type: cell-based; details: 35°-37° C., 20-24 hours
[7] = system: Strep. pneumoniae CMX 635; test: antimicrobial spectrum, agar dilution MIC; assay type: cell-based; details: 35°-37° C., 20-24 hours
Strep. pyogenes C203 = test: antimicrobial spectrum, agar dilution MIC; assay type: cell-based; details: BHI agar, 35°-37° C., 20-24 hours
Bact. fragilis 105 = test: antimicrobial spectrum, agar dilution MIC; assay type: cell-based; details: BHI agar, 35°-37° C., 20-24 hours
Bact. fragilis SFM2975-7 = test: antimicrobial spectrum, agar dilution MIC; assay type: cell-based; details: 35°-37° C., 20-24 hours
Bact. vulgatus 792 = test: antimicrobial spectrum, agar dilution MIC; assay type: cell-based; details: BHI agar, 35°-37° C., 20-24 hours
[8] = system: Bact. thetaiotamicron 3304; test: antimicrobial spectrum, agar dilution MIC; assay type: cell-based; details: BHI agar, 35°-37° C., 20-24 hours
[9] = system: Bact. melaninogenicus ATCC 15930; test: antimicrobial spectrum, agar dilution MIC; assay type: cell-based; details: 35°-37° C., 20-24 hours
Pep. magnus ATCC 29328 = test: antimicrobial spectrum, agar dilution MIC; assay type: cell-based; details: 35°-37° C., 20-24 hours
Staph. aureus = test: acute mouse protection test; assay type: in vivo, Swiss albino mice; details: for ED50: Staphylococcus aureus, 168 h
Staph. aureus ATCC 6538P = test: antimicrobial spectrum, agar dilution MIC
Staph. aureus CMX 686B = test: antimicrobial spectrum, agar dilution MIC
Staph. aureus A5177 = test: antimicrobial spectrum, agar dilution MIC
Staph. epidermidis 3519 = test: antimicrobial spectrum, agar dilution MIC
[10] = system: Strep. agalactiae CMX 508; test: antimicrobial spectrum, agar dilution MIC
E. coli KNK 437 = test: antimicrobial spectrum, agar dilution MIC
Acinetobacter SP CMX 669 = test: antimicrobial spectrum, agar dilution MIC
[11] = system: Staph. epidermidis CMX 729h; test: antimicrobial spectrum, agar dilution MIC
[12] = system: Staph. epidermidis CMX 724G; test: antimicrobial spectrum, agar dilution MIC
Enterococcus CMX 736F = test: antimicrobial spectrum, agar dilution MIC
Enterococcus CMX 729G = test: antimicrobial spectrum, agar dilution MIC
Enterococcus GYR 1164 = test: antimicrobial spectrum, agar dilution MIC
[13] = system: Strep. pneumoniae 78-008107; test: antimicrobial spectrum, agar dilution MIC
[14] = system: Bact. thetaiotamicron ATCC 29741; test: antimicrobial spectrum, agar dilution MIC
Peptostrep. SP TB-11 = test: antimicrobial spectrum, agar dilution MIC
[15] = Streptococcus pyogenes, read-out: MIC

For `CC[C@H]1OC(=O)[C@H](C)[C@@H](O[C@H]2C[C@@](C)(OC)[C@@H](O)[C@H](C)O2)[C@H](C)[C@@H](O[C@@H]2O[C@H](C)C[C@H](N(C)C)[C@H]2O)[C@](C)(O)C[C@@H](C)C(=O)[C@H](C)[C@@H](O)[C@]1(C)O` [Erythromycin A, reference compound], the MIC ([1]; Staphylococcus epidermidis, 3519RARI) was 0.39 µg/mL (≈ 0.531 µM), the MIC (Strep. pyogenes EES61; [15]) was 0.01 µg/mL (≈ 0.0136 µM) and the MIC (Staph. aureus ATCC 25923; Staphylococcus aureus, ATCC25923, BHI agar, read-out: MIC) was 0.06 µg/mL (≈ 0.0818 µM). The MIC (Staph. aureus CMX 730A; Staphylococcus aureus, CMX730A, read-out: MIC) was 0.06 µg/mL (≈ 0.0818 µM), the MIC (Staph. aureus NCTC 10649; Staphylococcus aureus, NCTC10649, BHI agar, read-out: MIC) was 0.12 µg/mL (≈ 0.164 µM) and the MIC (Staph. aureus CYR 1150; Staphylococcus aureus, CYR1150, BHI agar, read-out: MIC) was 0.12 µg/mL (≈ 0.164 µM). For the same compound, the MIC (Staph. aureus CYR 1162; Staphylococcus aureus, CYR1162, BHI agar, read-out: MIC) was 0.06 µg/mL (≈ 0.0818 µM), the MIC ([2]; Staphylococcus epidermidis, CMX728, BHI agar, read-out: MIC) was 0.06 µg/mL (≈ 0.0818 µM) and the MIC ([3]; Staphylococcus epidermidis, GYR1151, BHI agar, read-out: MIC) was 0.06 µg/mL (≈ 0.0818 µM). It also gave an MIC ([4]; Staphylococcus saprophyticus, ATCC15305, BHI agar, read-out: MIC) of 0.06 µg/mL (≈ 0.0818 µM), an MIC (Enterococcus GYR 1166; Enterococcus, GYR1166) of 1 µg/mL (≈ 1.36 µM) and an MIC ([5]; Streptococcus agalactiae, CMX633, BHI agar, read-out: MIC) of 0.015 µg/mL (≈ 0.0204 µM). For the same compound, the MIC ([6]; Streptococcus pyogenes, M79061139, BHI agar, read-out: MIC) was 0.015 µg/mL (≈ 0.0204 µM), the MIC ([7]; Streptococcus pneumoniae, CMX635, BHI agar, read-out: MIC) was 0.008 µg/mL (≈ 0.0109 µM) and the MIC (Strep. pyogenes C203; [15]) was 0.004 µg/mL (≈ 0.00545 µM). The MIC (Bact. fragilis 105; Bacteroides fragilis, read-out: MIC) was 0.4 µg/mL (≈ 0.545 µM), the MIC (Bact. fragilis SFM2975-7; Bacteroides fragilis, SFM29757, BHI agar, read-out: MIC) was 6.3 µg/mL (≈ 8.58 µM) and the MIC (Bact. vulgatus 792; Phocaeicola vulgatus, read-out: MIC) was 0.4 µg/mL (≈ 0.545 µM). It also gave an MIC ([8]; read-out: MIC) of 6.3 µg/mL (≈ 8.58 µM), an MIC ([9]; Prevotella intermedia, ATCC15930, BHI agar, read-out: MIC) of 0.4 µg/mL (≈ 0.545 µM) and an MIC (Pep. magnus ATCC 29328; Finegoldia magna, ATCC29328, BHI agar, read-out: MIC) of 0.4 µg/mL (≈ 0.545 µM). It also gave an ED50 (Staph. aureus; Staph. aureus, mice, oral, dosed 1 and 5 hours post-infection, observed 7 days, read-out: ED-50) of 141 mg/kg, an ED50 (Staph. aureus; sc) of 21.4 mg/kg and an MIC (Staph. aureus ATCC 6538P; Staphylococcus aureus, ATCC6538P) of 0.39 µg/mL (≈ 0.531 µM). For the same compound, the MIC (Staph. aureus CMX 686B; Staphylococcus aureus, CMX686B) was 0.39 µg/mL (≈ 0.531 µM), the MIC (Staph. aureus A5177; Staphylococcus aureus, A5177) was 1.56 µg/mL (≈ 2.13 µM) and the MIC (Staph. epidermidis 3519; Staphylococcus epidermidis, 3519) was 0.39 µg/mL (≈ 0.531 µM). For the same compound, the MIC ([10]; Streptococcus agalactiae, CMX508) was 0.05 µg/mL (≈ 0.0681 µM), the MIC (E. coli KNK 437; Escherichia coli, KNK437) was 100 µg/mL (≈ 136 µM) and the MIC (Acinetobacter SP CMX 669; Acinetobacter, SPCMX669) was 12.5 µg/mL (≈ 17 µM). The MIC ([11]; Staphylococcus epidermidis, CMX729H) was 128 µg/mL (≈ 174 µM), the MIC ([12]; Staphylococcus epidermidis, CMX724G) was 128 µg/mL (≈ 174 µM) and the MIC (Enterococcus CMX 736F; Enterococcus, CMX736F) was 0.1 µg/mL (≈ 0.136 µM). It also gave an MIC (Enterococcus CMX 729G; Enterococcus, CMX729G) of 0.1 µg/mL (≈ 0.136 µM), an MIC (Enterococcus GYR 1164; Enterococcus, GYR1164) of 2 µg/mL (≈ 2.73 µM) and an MIC ([13]; Streptococcus pneumoniae, 78008107) of 128 µg/mL (≈ 174 µM). The MIC [14] was 3.1 µg/mL (≈ 4.22 µM) and the MIC (Peptostrep. SP TB-11) was 3.1 µg/mL (≈ 4.22 µM).

With `CCC1OC(=O)C(C)C(OC2CC(C)(OC)CC(C)O2)C(C)C(OC2OC(C)CC(N(C)C)C2O)C(C)(O)CC(C)C(=O)C(C)C2OC(=O)OC12C` (stereo not shown) [4"-deoxyerythromycin A 11,12-carbonate] the MIC ([1]; Staph. epidermidis 3519 RARI, BHI agar, 35°-37° C., 20-24 hours) was “.1 µg/mL”, the MIC (Strep. pyogenes EES61) was “.01 µg/mL” and the MIC (Staph. aureus ATCC 25923; BHI agar) was “.03 µg/mL”. For the same compound, the MIC (Staph. aureus CMX 730A) was “.03 µg/mL”, the MIC (Staph. aureus NCTC 10649; BHI agar) was “.06 µg/mL” and the MIC (Staph. aureus CYR 1150; BHI agar) was “.03 µg/mL”. The MIC (Staph. aureus CYR 1162; BHI agar) was “.06 µg/mL”, the MIC ([2]; BHI agar) was “.03 µg/mL” and the MIC ([3]; BHI agar) was “.06 µg/mL”. The MIC ([4]; BHI agar) was “.03 µg/mL”, the MIC (Enterococcus GYR 1166; Enterococcus GYR 1166, BHI agar, 35°-37° C., 20-24 hours) was “.12 µg/mL” and the MIC ([5]; BHI agar) was “.015 µg/mL”. The MIC ([6]; BHI agar) was “.015 µg/mL”, the MIC ([7]; BHI agar) was “.008 µg/mL” and the MIC (Strep. pyogenes C203) was “.004 µg/mL”. The MIC (Bact. fragilis 105) was “.2 µg/mL”, the MIC (Bact. fragilis SFM2975-7; BHI agar) was “.8 µg/mL” and the MIC (Bact. vulgatus 792) was “.2 µg/mL”. For the same compound, the MIC [8] was 3.1 µg/mL (≈ 4.17 µM), the MIC ([9]; BHI agar) was “.1 µg/mL” and the MIC (Pep. magnus ATCC 29328; BHI agar) was “.2 µg/mL”. The ED-50 (Staph. aureus; Staph. aureus, mice, oral, dosed 1 and 5 hours post-infection, observed 7 days) was 31.4 mg/kg, the ED-50 (Staph. aureus; Staph. aureus, mice, subcutaneous, dosed 1 and 5 hours post-infection, observed 7 days) was 36.3 mg/kg and the MIC (Staph. aureus ATCC 6538P; Staph. aureus ATCC 6538P, BHI agar, 35°-37° C., 20-24 hours) was “.1 µg/mL”. The MIC (Staph. aureus CMX 686B; Staph. aureus CMX 686B, BHI agar, 35°-37° C., 20-24 hours) was “.1 µg/mL”, the MIC (Staph. aureus A5177; Staph. aureus A5177, BHI agar, 35°-37° C., 20-24 hours) was “.39 µg/mL” and the MIC (Staph. epidermidis 3519; Staph. epidermidis 3519, BHI agar, 35°-37° C., 20-24 hours) was “.1 µg/mL”. The MIC ([10]; Strep. agalactiae CMX 508, BHI agar, 35°-37° C., 20-24 hours) was “.02 µg/mL”, the MIC (E. coli KNK 437; E. coli KNK 437, BHI agar, 35°-37° C., 20-24 hours) was 25 µg/mL (≈ 33.6 µM) and the MIC (Acinetobacter SP CMX 669; Acinetobacter SP CMX 669, BHI agar, 35°-37° C., 20-24 hours) was 6.2 µg/mL (≈ 8.33 µM). The MIC ([11]; Staph. epidermidis CMX 729h, BHI agar, 35°-37° C., 20-24 hours) was 128 µg/mL (≈ 172 µM), the MIC ([12]; Staph. epidermidis CMX 724G, BHI agar, 35°-37° C., 20-24 hours) was 128 µg/mL (≈ 172 µM) and the MIC (Enterococcus CMX 736F; Enterococcus CMX 736F, BHI agar, 35°-37° C., 20-24 hours) was “.12 µg/mL”. The MIC (Enterococcus CMX 729G; Enterococcus CMX 729G, BHI agar, 35°-37° C., 20-24 hours) was “.12 µg/mL”, the MIC (Enterococcus GYR 1164; Enterococcus GYR 1164, BHI agar, 35°-37° C., 20-24 hours) was “.12 µg/mL” and the MIC ([13]; Strep. pneumoniae 78-008107, BHI agar, 35°-37° C., 20-24 hours) was 32 µg/mL (≈ 43 µM). The MIC ([14]; Bact. thetaiotamicron ATCC 29741, BHI agar, 35°-37° C., 20-24 hours) was 1.6 µg/mL (≈ 2.15 µM) and the MIC (Peptostrep. SP TB-11; Peptostrep. SP TB-11, BHI agar, 35°-37° C., 20-24 hours) was “.8 µg/mL”.
